Assay results taken from patent US20250129021A1, “SMALL MOLECULE PROTEIN SYNTHESIS MODULATORS” (Interdict Bio, Inc., priority 2023, published 2025).

Tests used:
Format in all cases: biochemical
MYC = assay: In vitro transcription-translation (IVTT) assay, MYC reporter; conditions: IVTT assay, HeLa S3 lysate, MYC reporter, normalized sfGFP/mCherry ratio; half-log dilutions 30 μM-0.1 μM, 2 hrs at 30° C.
How it was run: (§1)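 Reporter: mCherry, P2A, then 3×FLAG-target peptide-sfGFP fusion, IRES-initiated; HeLa S3 lysate IVTT; cpd dilutions 30 μM−0.1 μM half-log in 100% DMSO (dilution-plate conc); DNA added last; 2 h, 30° C; PBS quench.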

CCND1 = assay: In vitro transcription-translation (IVTT) assay, CCND1 reporter; conditions: IVTT, HeLa S3 lysate, 2 hrs at 30° C.
How it was run: as §1

MCL-1 = assay: In vitro transcription-translation (IVTT) assay, MCL-1 reporter; conditions: IVTT, HeLa S3 lysate, 2 hrs at 30° C.; read-out: MCL1 IC50
How it was run: as §1

CCNTB1 = assay: In vitro transcription-translation (IVTT) assay, CCNTB1 reporter; conditions: HeLa S3 lysate, 2 hrs at 30° C.
Protocol: Each preparation takes 8 cell pellets (4 ml packed volume each, approximately 1.0×10^9 cells per pellet). Thaw cell pellets from −80° C. on ice for 90 mins. Lay pellets horizontally on top of the ice and rotate every 30 mins to ensure even thawing. Once thawed, add 4 mL of cold lysis buffer to each pellet, and using a serological pipet, gently pipet up and down to break up clumps. Incubate resuspended cells in ice for an additional 30 mins (plunged into ice). During 30 min incubation, rinse and RNase-zap (Ambion) glass dounces (use loose pestle “A”), gently dry and place on ice until needed. Prepare RNase-free Eppendorf tubes for spinning and for batch storage. Add batch labels to 1.5-1.7 mL RNase-free microcentrifuge tubes (labeling scheme below). Each batch will have an extra 1.5-1.7 mL RNase-free microcentrifuge tube for 40 μL of lysate, label the top of this tube (labeling scheme below). After 30 min incubation, transfer all 8 mL of cell pellet to dounce. Cell lysis is complete after douncing 100 times. Aliquot cell lysis into 1.5-1.7 mL temporary-microcentrifuge tubes. Place tubes in centrifuge with “fins” out, and spin at 1,200×g for 5 mins. After the first spin use a 1 mL pipet to resuspend each tube and repeat spin. This acts as an additional lysis step, is more vigorous and increases lysate yield. During second spin get liquid N2 and a fresh conical tube on ice. After spin is complete, transfer supernatant (lysate) from microcentrifuge tubes into the 50 mL conical tube and keep on ice. Repeat steps 10-14 for all other cell pellets until completed. Once all cell lysate has been transferred to the 50 mL conical tube pipet to mix so the solution is homogenous. Transfer 1 mL of lysate into batch-labeled microcentrifuge tubes and flash freeze in liquid nitrogen. Be sure to pipet up and down to mix throughout transfer step. Place all tubes in the […] for long-term storage.
In vitro transcription-translation assay setup: Each assay includes a master mix containing lysate and shared components, a 96-well plate containing compound titrations for testing, a 96-well DNA plate with reporter constructs to be tested, 96-well skirted PCR plates, and 96-well flat-bottom, black, fluorescent assay plates. Reaction materials setup: (A) Master mix—15 mL conical tube (3 mL of HeLa S3 Lysate described above; 0.6 mL of ThermoFisher Accessory Proteins (#88882); 1.2 ml of ThermoFisher Reaction Mix (#88882); 0.54 mL of nuclease-free Water); (B) 96-Well Master Mix+Compound Plate (Half-log dilutions (30 μM−0.1 μM) of 4 compounds of interest are prepared in 100% DMSO); 96-Well DNA Plate (Five DNA constructs are plated into single columns within the plate. Row 1 of the column contains nuclease free H2O, all other wells contain 110 ng/μL plasmid DNA). Reactions are started by mixing 155 μL of master mix and 3.5 μL of compound serial dilutions, then 9.1 μL of master mix+compound mixture is aliquoted across 5 96-well plates. Reactions begin with final addition of 2 μL of DNA for a 11.1 μL reaction volume in each well. The entire plate is sealed, and incubated for 2 hrs at 30° C. After 2 hrs, quench the assay using 45 μL of PBS, and transfer 50 μL to a flat-bottom black microplate Quantify the sfGFP and mCherry signals from each well on each plate, taking 3 reads of each plate, and perform data analysis below.
In vitro transcription-translation assay data analysis: Each plate is read three times in channels for both sfGFP and mCherry signals. The average signal across these 3 reads is then calculated for further analysis. Control wells containing no DNA reporter are subtracted from reporter wells in the same column to remove auto-fluorescence of the lysate. Then, the ratio of sfGFP/mCherry is calculated per well, and these ratios are averaged across the triplicate experiments on the same plate. Finally, the ratio of each titration concentration is normalized to the no drug control to create the normalized stalling metric. […]

Row | SMILES | IC50 (MYC) | IC50 (CCND1) | IC50 (MCL-1) | IC50 (CCNTB1)
1 | CC(F)(F)c1ccc(C[C@H]2NC[C@H](O)[C@H]2OC(=O)NCC[C@@H]2CCCN2)cc1 [V191885, (2R,3S,4S)-2-{[4-(1,1-difluoroethyl)phenyl]methyl}-4-hydroxypyrrolidin-3-yl N-{2-[(2S)-pyrrolidin-2-yl]ethyl}carbamate] | < 10 µM | 10 to 20 µM | < 10 µM | < 10 µM
2 | COc1ccc(C[C@H]2NC[C@H](O)[C@H]2OC(=O)NCC(=O)NCC(=O)O)cc1 [V188018, {2-[({[(2R,3S,4S)-4-hydroxy-2-[(4-methoxyphenyl)methyl]pyrrolidin-3-yl]oxy}carbonyl)amino]acetamido}acetic Acid] | 10 to 20 µM | > 30 µM | > 30 µM | > 30 µM
3 | COc1ccc(C[C@H]2NC[C@H](O)[C@H]2OC(=O)NCc2ccc(F)cc2)cc1 [V188378, (2R,3S,4S)-4-hydroxy-2-[(4-methoxyphenyl)methyl]pyrrolidin-3-yl N-[(4-fluorophenyl)methyl]carbamate] | < 10 µM | < 10 µM | < 10 µM | < 10 µM
4 | COc1ccc(C[C@H]2NC[C@H](O)[C@H]2OC(=O)NCC23CC(C2)C3)cc1 [V188324, (2R,3S,4S)-4-hydroxy-2-[(4-methoxyphenyl)methyl]pyrrolidin-3-yl N-{bicyclo[1.1.1]pentan-1-ylmethyl}carbamate] | 10 to 20 µM | 10 to 20 µM | 10 to 20 µM | < 10 µM
5 | COc1ccc(C[C@H]2NC[C@H](O)[C@H]2OC(=O)NCC[C@@H]2CCC3(CC3)N2)cc1 [V191945, (2R,3S,4S)-4-hydroxy-2-[(4-methoxyphenyl)methyl]pyrrolidin-3-yl N-{2-[(5S)-4-azaspiro[2.4]heptan-5-yl]ethyl}carbamate] | < 10 µM | 10 to 20 µM | < 10 µM | < 10 µM
6 | CC(F)(F)c1ccc(C[C@H]2NC[C@H](O)[C@H]2OC(=O)NCc2cccc(F)c2)cc1 [V190547, (2R,3S,4S)-2-{[4-(1,1-difluoroethyl)phenyl]methyl}-4-hydroxypyrrolidin-3-yl N-[(3-fluorophenyl)methyl]carbamate] | < 10 µM | 20 to 30 µM | < 10 µM | < 10 µM
7 | COc1ccc(C[C@H]2NC[C@H](O)[C@H]2OC(=O)NCC(=O)N[C@@H](C)C(=O)O)cc1 [V188019, (2S)-2-{2-[({[(2R,3S,4S)-4-hydroxy-2-[(4-methoxyphenyl)methyl]pyrrolidin-3-yl]oxy}carbonyl)amino]acetamido}propanoic acid] | 10 to 20 µM | > 30 µM | > 30 µM | > 30 µM
8 | COc1ccc(C[C@H]2NC[C@H](O)[C@H]2OC(=O)NCc2cccc(F)c2)cc1 [V188379, (2R,3S,4S)-4-hydroxy-2-[(4-methoxyphenyl)methyl]pyrrolidin-3-yl N-[(3-fluorophenyl)methyl]carbamate] | < 10 µM | < 10 µM | < 10 µM | < 10 µM
9 | COc1ccc(C[C@H]2NC[C@H](O)[C@H]2OC(=O)NCc2ccc(N)nc2)cc1 [V188316, (2R,3S,4S)-4-hydroxy-2-[(4-methoxyphenyl)methyl]pyrrolidin-3-yl N-[(6-aminopyridin-3-yl)methyl]carbamate] | < 10 µM | < 10 µM | < 10 µM | < 10 µM
10 | COc1ccc(C[C@H]2NC[C@H](O)[C@H]2OC(=O)NCc2cnoc2)cc1 [V188383, (2R,3S,4S)-4-hydroxy-2-[(4-methoxyphenyl)methyl]pyrrolidin-3-yl N-(1,2-oxazol-4-ylmethyl)carbamate] | < 10 µM | < 10 µM | < 10 µM | < 10 µM
11 | COc1ccc(C[C@H]2NC[C@H](O)[C@H]2OC(=O)NCc2ccnc3c2CCN3)cc1 [V188360, (2R,3S,4S)-4-hydroxy-2-[(4-methoxyphenyl)methyl]pyrrolidin-3-yl N-{1H,2H,3H-pyrrolo[2,3-b]pyridin-4-ylmethyl}carbamate] | < 10 µM | < 10 µM | < 10 µM | < 10 µM
